Assay results reported in ChEMBL document CHEMBL1136816, “Synthesis and evaluation of ether and halogenated derivatives of mannopeptimycin glycopeptide antibiotics” (2003).
Values after ≈ are worked out from the molar mass of the structure shown. One block for each compound: values may come before it.

How the values were obtained:
Type in all cases: functional
[1] = tested on: Staphylococcus aureus; assay: In vitro minimum inhibitory concentration against Staphylococcus aureus; 1-8
[2] = tested on: Streptococcus sp.; assay: In vitro minimum inhibitory concentration against Streptococcus species; 0.5-2
[3] = tested on: Enterococcus sp.; assay: In vitro minimum inhibitory concentration against Enterococcus species; 4-32
[4] = tested on: Enterococcus sp.; assay: In vitro minimum inhibitory concentration against Enterococcus species; 0.5->64
[5] = tested on: Streptococcus sp.; assay: In vitro minimum inhibitory concentration against Streptococcus species; 0.12-0.5
[6] = tested on: Staphylococcus aureus; assay: In vitro minimum inhibitory concentration against Staphylococcus aureus
[7] = tested on: Streptococcus sp.; assay: In vitro minimum inhibitory concentration against Streptococcus species
[8] = tested on: Enterococcus sp.; assay: In vitro minimum inhibitory concentration against Enterococcus species
[9] = tested on: Enterococcus sp.; assay: In vitro minimum inhibitory concentration against Enterococcus species; 2-4
[10] = tested on: Staphylococcus aureus; assay: In vitro minimum inhibitory concentration against Staphylococcus aureus; 1-2
[11] = tested on: Enterococcus sp.; assay: In vitro minimum inhibitory concentration against Enterococcus species 2-8
[12] = tested on: Streptococcus sp.; assay: In vitro minimum inhibitory concentration against Streptococcus species; </=0.06-5
[13] = tested on: Staphylococcus aureus; assay: In vitro minimum inhibitory concentration against Staphylococcus aureus; 2-4
[14] = tested on: Enterococcus sp.; assay: In vitro minimum inhibitory concentration against Enterococcus species; 4-16
[15] = tested on: Streptococcus sp.; assay: In vitro minimum inhibitory concentration against Streptococcus species; </=0.06-2
[16] = tested on: Enterococcus sp.; assay: In vitro minimum inhibitory concentration against Enterococcus species; 2-16
[17] = tested on: Staphylococcus aureus; assay: In vitro minimum inhibitory concentration against Staphylococcus aureus; 1-4
[18] = tested on: Streptococcus sp.; assay: In vitro minimum inhibitory concentration against Streptococcus species; </=0.12-0.5

MIC [1]: 1 µg/mL (≈ 0.685 µM) | MIC [2]: 0.5 µg/mL (≈ 0.343 µM) | MIC [3]: 4 µg/mL (≈ 2.74 µM)
Compound: CCOc1cc(COCC2O[C@H](O[C@H]3[C@H](O)[C@H](O)[C@@H](Oc4ccc(C[C@H]5NC(=O)[C@H]([C@@H](C)c6ccccc6)NC(=O)CNC(=O)[C@H](CO)NC(=O)[C@@H]([C@@H](O)[C@@H]6CN=C(N)N6[C@H]6O[C@H](CO)[C@@H](O)[C@H](O)[C@@H]6O)NC(=O)[C@H]([C@@H](O)[C@@H]6CN=C(N)N6)NC5=O)cc4)O[C@@H]3CO)[C@@H](O)[C@@H](O)[C@@H]2O)ccc1OC (stereo partly drawn)

Compound: CN[C@H](CC(C)C)C(=O)N[C@H]1C(=O)N[C@@H](CC(N)=O)C(=O)N[C@H]2C(=O)N[C@H]3C(=O)N[C@H](C(=O)N[C@H](C(=O)O)c4cc(O)cc(O)c4-c4cc3ccc4O)[C@H](O)c3ccc(c(Cl)c3)Oc3cc2cc(c3O[C@@H]2O[C@H](CO)[C@@H](O)[C@H](O)[C@H]2O[C@H]2C[C@](C)(N)[C@H](O)[C@H](C)O2)Oc2ccc(cc2Cl)[C@H]1O [VANCOMYCIN]
MIC [4]: 0.5 µg/mL (≈ 0.345 µM) | MIC [5]: 0.12 µg/mL (≈ 0.0828 µM)

MIC [2]: 0.5 µg/mL (≈ 0.353 µM) | MIC [6]: 4 µg/mL (≈ 2.83 µM) | MIC [3]: 4 µg/mL (≈ 2.83 µM)
Compound: COc1ccc(COC[C@H]2O[C@H](O[C@H]3[C@H](O)[C@H](O)[C@@H](Oc4ccc(C[C@H]5NC(=O)[C@H]([C@@H](C)c6ccccc6)NC(=O)CNC(=O)[C@H](CO)NC(=O)[C@@H]([C@@H](O)[C@@H]6CN=C(N)N6[C@H]6O[C@H](CO)[C@@H](O)[C@H](O)[C@@H]6O)NC(=O)[C@H]([C@@H](O)[C@@H]6CN=C(N)N6)NC5=O)cc4)O[C@@H]3CO)[C@@H](O)[C@@H](O)[C@@H]2O)cc1

MIC [7]: > 128 µg/mL | MIC [8]: > 128 µg/mL | MIC [6]: > 128 µg/mL
Compound: C[C@@H](c1ccccc1)[C@@H]1NC(=O)CNC(=O)[C@H](CO)NC(=O)[C@@H]([C@@H](O)[C@@H]2CN=C(N)N2[C@H]2O[C@H](CO)[C@@H](O)[C@H](O)[C@@H]2O)NC(=O)[C@H]([C@@H](O)[C@@H]2CN=C(N)N2)NC(=O)[C@@H](Cc2ccc(O[C@H]3O[C@H](CO)[C@@H](O[C@H]4O[C@H](CO)[C@@H](O)[C@H](O)[C@@H]4O)[C@H](O)[C@@H]3O)c(I)c2)NC1=O

MIC [7]: ≤ 0.06 µg/mL | MIC [9]: 2 µg/mL (≈ 1.34 µM) | MIC [6]: 2 µg/mL (≈ 1.34 µM)
Compound: C[C@@H](c1ccccc1)[C@@H]1NC(=O)CNC(=O)[C@H](CO)NC(=O)[C@@H]([C@@H](O)[C@@H]2CN=C(N)N2[C@H]2O[C@H](CO)[C@@H](O)[C@H](O)[C@@H]2O)NC(=O)[C@H]([C@@H](O)[C@@H]2CN=C(N)N2)NC(=O)[C@@H](Cc2ccc(O[C@H]3O[C@H](CO)[C@@H](O[C@H]4O[C@H](COCC=C(c5ccccc5)c5ccccc5)[C@@H](O)[C@H](O)[C@@H]4O)[C@H](O)[C@@H]3O)cc2)NC1=O

MIC [10]: 1 µg/mL (≈ 0.682 µM) | MIC [11]: 2 µg/mL (≈ 1.36 µM) | MIC [12]: ≤ 0.06 µg/mL
Compound: COc1ccc2cc(COC[C@H]3O[C@H](O[C@H]4[C@H](O)[C@H](O)[C@@H](Oc5ccc(C[C@H]6NC(=O)[C@H]([C@@H](C)c7ccccc7)NC(=O)CNC(=O)[C@H](CO)NC(=O)C(C(O)[C@@H]7CN=C(N)N7[C@H]7O[C@H](CO)[C@@H](O)[C@H](O)[C@@H]7O)NC(=O)[C@H]([C@@H](O)[C@@H]7CN=C(N)N7)NC6=O)cc5)O[C@@H]4CO)[C@@H](O)[C@@H](O)[C@@H]3O)ccc2c1 (stereo partly drawn)

MIC [13]: 2 µg/mL (≈ 1.31 µM) | MIC [14]: 4 µg/mL (≈ 2.63 µM) | MIC [15]: ≤ 0.06 µg/mL
Compound: COc1ccc(CO[C@H]2[C@H](O)[C@H](O)[C@@H](O[C@H]3[C@H](O)[C@H](O)[C@@H](Oc4ccc(C[C@H]5NC(=O)[C@H]([C@@H](C)c6ccccc6)NC(=O)CNC(=O)[C@H](CO)NC(=O)[C@@H]([C@@H](O)[C@@H]6CN=C(N)N6[C@H]6O[C@H](CO)[C@@H](O)[C@H](O)[C@@H]6O)NC(=O)[C@H]([C@@H](O)[C@@H]6CN=C(N)N6)NC5=O)cc4)O[C@@H]3CO)O[C@@H]2CO)cc1OCc1ccccc1

MIC [16]: 2 µg/mL (≈ 1.36 µM) | MIC [17]: 1 µg/mL (≈ 0.682 µM) | MIC [18]: ≤ 0.12 µg/mL
Compound: COc1ccc(COC[C@H]2O[C@H](O[C@H]3[C@H](O)[C@H](O)[C@@H](Oc4ccc(C[C@H]5NC(=O)[C@H]([C@@H](C)c6ccccc6)NC(=O)CNC(=O)[C@H](CO)NC(=O)[C@@H]([C@@H](O)[C@@H]6CN=C(N)N6[C@H]6O[C@H](CO)[C@@H](O)[C@H](O)[C@@H]6O)NC(=O)[C@H]([C@@H](O)[C@@H]6CN=C(N)N6)NC5=O)cc4)O[C@@H]3CO)[C@@H](O)[C@@H](O)[C@@H]2O)c2ccccc12
